Laboratory results as given in article PMC3044726, “Identification of Human IKK-2 Inhibitors of Natural Origin (Part I): Modeling of the IKK-2 Kinase Domain, Virtual Screening and Activity Assays” (PLoS ONE, 2011).
Read-outs that look alike come from different tables or passages of the source.

Molecular target: T1, hIKK-2 (Homo sapiens, UniProt O14920)
T1 construct: gene IKBKB
T1 sequence (O14920 1-756): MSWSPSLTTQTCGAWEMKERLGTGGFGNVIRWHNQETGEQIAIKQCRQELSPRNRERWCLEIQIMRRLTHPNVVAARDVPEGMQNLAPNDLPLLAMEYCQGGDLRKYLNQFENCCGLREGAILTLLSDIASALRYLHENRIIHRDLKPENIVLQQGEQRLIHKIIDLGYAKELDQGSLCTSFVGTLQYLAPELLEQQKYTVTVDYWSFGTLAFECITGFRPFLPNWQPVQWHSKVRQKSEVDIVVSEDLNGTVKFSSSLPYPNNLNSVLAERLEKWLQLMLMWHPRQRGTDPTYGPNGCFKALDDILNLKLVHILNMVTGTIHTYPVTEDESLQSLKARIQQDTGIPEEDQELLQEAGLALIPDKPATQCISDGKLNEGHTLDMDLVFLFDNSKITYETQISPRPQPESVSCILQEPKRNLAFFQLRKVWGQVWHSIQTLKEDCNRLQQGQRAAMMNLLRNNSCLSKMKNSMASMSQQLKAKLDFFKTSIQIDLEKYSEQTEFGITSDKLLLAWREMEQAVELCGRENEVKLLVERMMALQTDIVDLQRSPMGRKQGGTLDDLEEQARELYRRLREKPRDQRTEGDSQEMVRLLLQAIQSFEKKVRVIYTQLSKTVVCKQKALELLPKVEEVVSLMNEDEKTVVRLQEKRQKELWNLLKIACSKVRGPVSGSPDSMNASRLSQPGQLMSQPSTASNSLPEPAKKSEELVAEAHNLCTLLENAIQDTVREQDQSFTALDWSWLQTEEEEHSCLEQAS
Assay: K-LISA IKKβ ELISA kinase assay with GST-IκBα substrate
Assay type: biochemical

In the case of `OC[C@@H]1CCCN2CCCC[C@H]12` [ZINC01669260, lupinine], the IC50 (read-out: IC50) is reported as 3.32 mM.
`COCc1c(CN)cnc(C)c1N` [ZINC03683886] showed an IC50 of 2.07 mM.
`CCOc1ccc2nc3cc(N)ccc3c(N)c2c1` [ZINC03871389, ethacridine] gave an IC50 (read-out: IC50) of 0.184 mM.
